Data on 3 molecules can be found in patent publication EP4631503A1, “AVL-292 OR MK-5108 FOR USE IN THE TREATMENT OF PDAC” (priority 2024, dated 2025).

Where two headings read alike, the source gives them in different places.

Data set [1] has as its system cleaved PRAP. The data set can be described thus: Western blot, apoptotic marker. Type of data set: cell-based. As to conditions: apoptotic gene. The procedure:
(§1) Pane1 and HPAF II cells were seeded into a 6-well plate at 200,000 cells per well concentration. After siRNA transfection and drug treatment, whole cell lysate was prepared with CelLytic M (C2978, Sigma-Aldrich) buffer and samples were prepared with 2x Laemmli Sample Buffer (1610737, Biorad) at 20µg protein lysate. SDS PAGE was performed Mini-PROTEAN® TGX™ Precast Gels (Bio-Rad) and transferred using Trans-Blot® Turbo™ Transfer System (Bio-Rad). CDCA5 (ab192237, abcam), KIF18A (ab72417, abcam), KIF23 (HPA068831, Sigma Aldrich), TPX2 (ab252944, abeam), Aurora A (ab108353, abeam), Aurora B (ab287960, abcam), PARP (9542S, Cell signaling), […] (ab2324, abcam), β-actin (ab8227, abeam), GAPDH (ab8245, abeam), and α-tubulin (ab7291, abcam) were blotted as a primary antibody for overnight. Secondary antibodies, Goat Anti-Rabbit HRP (ab205718) and goat anti-mouse IgG-HRP (sc2005, Santa Cruz Biotechnology, Inc.) were blotted for one hour. The protein band was detected with ImageQuantTMLAS 500 (29-0050-63, GE).
In general terms: In western blotting, separated proteins are transferred to a membrane and probed.

Data set [2] is described as follows: Western blot, apoptotic marker. Type of data set: cell-based. As to conditions: apoptotic gene. The method, then:
as §1

The subject of data set [3] is HPAF II. The data set can be described thus: MTT cell viability assay. Type of data set: cell-based. As to conditions: Homo sapiens, 48 h. The procedure:
Pane1 and HPAF II cells were cultured with DMEM (D0822, Sigma-Aldrich) supplemented with 10% fetal bovine serum (FBS, F7524, Sigma-Aldrich), 1% P/S (P4333, Sigma-Aldrich). […] Drugs were treated to cells for two days at 10µM. Cell viability was measured by MTT assay (M6494, ThermoFisher) by following the manufacturer's instructions. O.D values were detected with a microplate reader (Hidex Sense Beta Plus).
(In general: Tetrazolium assays rely on reduction of a dye to a coloured formazan, in cell work by metabolically active cells.)

The nature of data set [4]: MTT cell viability assay. The format is cell-based. As to conditions: Homo sapiens, PANC-1, 48 h, Pane1 cells, two days. The method, then:
Pane1 and HPAF II cells were cultured with DMEM (D0822, Sigma-Aldrich) supplemented with 10% fetal bovine serum (FBS, F7524, Sigma-Aldrich), 1% P/S (P4333, Sigma-Aldrich). For siRNA treatment, 200,000 cells for a 6well plate and 20,000 cells per well for a 96well plate were seeded. siRNAs were purchased in Origene, CDCA5 (SR314367, Origene), KIF18A (SR313129, Origene), KIF23 (SR306300, Origene), TPX2 (SR307905, Origene), and cells were transfected by Lipofectamine® RNAiMAX (13778-075, Invitrogen) for two days. Small molecules which repositioned were purchased by AVL-292 (HY-18012, MCE), BCI-50 (HY-17553, MCE), MK-5108 (HY-13252, MCE), AZD1208 (HY-15604, MCE), SKA-31 (HY111655, MCE), Y-26763 (HY-101069, MCE), Estropipate (HY-B1361, MCE), Tiquizium (sc-474386, Santa Cruz), Acyclovir (HY-17422, MCE), and Cyproterone acetate (HY-13604, MCE) and dissolved into DMSO. Drugs were treated to cells for two days at 10µM. Cell viability was measured by MTT assay (M6494, ThermoFisher) by following the manufacturer's instructions. O.D values were detected with a microplate reader (Hidex Sense Beta Plus).

For data set [5] the following is noted: taken orally, phase I trial; cited from earlier work.
The test system of data set [6] is TPX2. The data set can be described thus: Western blot, protein expression level. The format is cell-based. To be noted: cells, 10 µM, in words. The method, then: as §1
Data set [7] concerns AURKA. The data set can be described thus: Western blot, protein expression level. The format is cell-based. As to conditions: cells, 10 µM, in words. The procedure:
as §1

The subject of data set [8] is CDCA5. As to the kind of experiment: Western blot, protein expression level. As to conditions: cells, 10 µM, in words. Type of data set: cell-based. The method, then: as §1
Data set [9] relates to KIF23. As to the kind of experiment: Western blot, protein expression level. As to conditions: cells, 10 µM, in words. The format is cell-based. The method, then: as §1
The test system of data set [10] is AURKB. The data set can be described thus: Western blot, protein expression level. Type of data set: cell-based. To be noted: cells, 10 µM, in words. The method, then: as §1
For data set [11], the system named is KIF18A. The data set can be described thus: Western blot, protein expression level. To be noted: Pane1 cells, 10 µM, in words. The format is cell-based. The procedure:
as §1

Data set [12] relates to PDAC. As to conditions: phase II clinical trials; cited from earlier work.

Consider `C=CC(=O)Nc1cccc(Nc2nc(Nc3ccc(OCCOC)cc3)ncc2F)c1` [AVL-292], for which the “protein expression level of cleaved PRAP” value in [1] is given as “increased”. Further, the “protein expression level of Cas9” value in [2] is listed as “increased”. The viability (in general, a per cent measure of how many cells are alive, often set against a control) at 10 µM turned out to be 71.6% in data set [3] (HPAF-II) and 60.7% in data set [4].

Turning to `O=C(O)[C@]1(Cc2cccc(Nc3nccs3)n2)CC[C@@H](Oc2cccc(Cl)c2F)CC1` [MK-5108], in data set [1], the “protein expression level of cleaved PRAP” value is “increased”. Also, the “protein expression level of Cas9” value in data set [2] was “increased”. The tolerability in patients result in data set [5] is on record as “well tolerated”. Moreover, the TPX2 expression change result in data set [6] is recorded as “over-expressed”. For the same molecule, the AURKA expression change entry in data set [7] is given as “over-expressed”. In addition, the CDCA5 expression change entry in data set [8] is listed as “over-expressed”. In data set [9], the KIF23 expression change entry is reported as “over-expressed”. Besides, the AURKB expression change result in [10] is “no obvious effect”. In addition, in data set [11], the KIF18A expression change result is recorded as “over-expressed”. Further, the viability at 10 µM stood at 69.5% in [3] (HPAF II cells, 10µM, two days, read-out: viability) and 45.8% in [4].

`CN(C)C(=N)N=C(N)N` [Metformin]: in [12], the “extended survival, average” value was 0.8 months.
